According to patent US7612034B2, “Treatment of subnormal bone mineral density” (Genelabs Technologies, Inc., priority 1999, dated 2009):

Columns and labels:
[1] = Stability of DHEA polymorph preparations under ambient conditions; assay type: physicochemical
[2] = Oral uptake and absorption of DHEA polymorph preparations; settings: oral administration
[3] = system: systemic lupus erythematous (SLE) patients; assay: Clinical trial data, SLE patients treated with DHEA, BMD; assay type: in vivo, human; settings: DHEA 200 mg daily, alone or in combination with prednisone
From the text: Its role in fetal physiology is poorly understood, but it is thought to serve as a precursor for other steroids, leading to androgen and estrogenic steroids. […] However, the administration of DHEA to humans to prevent bone loss or increase bone density is not a recognized treatment for osteoporosis/osteopenia by the medical community.

ovarectomized rats = settings: administration of DHEA to ovarectomized rats; cited from earlier work
[4] = system: postmenopausal women with low bone mass; settings: cited from earlier work
[5] = system: Postmenopausal women with osteoporosis; settings: cited from earlier work
[6] = system: spine bone mineral density (BMD); settings: analysis of 16 studies; chronic calcitonin treatment; cited from earlier work

C[C@]12CC[C@H](O)CC1=CC[C@@H]1[C@@H]2CC[C@]2(C)C(=O)CC[C@@H]12 [DHEA form I, dehydroepiandrosterone]
stability [1]: highly stable under ambient conditions

C[C@]12CC[C@H](O)CC1=CC[C@@H]1[C@@H]2CC[C@]2(C)C(=O)CC[C@@H]12 [DHEA form II, dehydroepiandrosterone]
stability [1]: stable under ambient conditions
rate of absorption [2]: rapid rate of absorption (greater than the form I polymorph)

C[C@]12CC[C@H](O)CC1=CC[C@@H]1[C@@H]2CC[C@]2(C)C(=O)CC[C@@H]12 [DHEA, dehydroepiandrosterone]
improvement of BMD [3]: only slight improvement of BMD
bone density (ovarectomized rats): increased bone density

NCCCC(O)(P(=O)(O)O)P(=O)(O)O [alendronate]
increases in BMD compared with calcitonin ([4]; alendronate 10 mg, LS and HT at 6 and 12 months (p<0.001), FN at 12 months (p=0.003)): significantly greater increases in BMD than did calcitonin
increases in BMD compared with calcitonin ([5]; alendronate 10 mg, LS and HT at 6 and 12 months (p<0.001), FN at 12 months (p=0.001)): significantly greater increases in BMD than did calcitonin

calcitonin
mean increase in spine bone mineral density (BMD) [6]: 1.97%
BMD changes compared with placebo ([4]; calcitonin 200 IU daily, LS, HT or FN at 6 or 12 months): not statistically different from placebo
increases in BMD in total femur and lumbar spine ([4]; up to 1 year of therapy, calcitonin 200 IU daily): only modest increases in BMD
BMD changes compared with placebo at FN ([5]; calcitonin 200 IU daily, FN at 6 (p=0.003) and 12 months (p=0.008)): statistically different from placebo
BMD changes compared with placebo at LS or HT ([5]; calcitonin 200 IU daily, LS or HT at 6 or 12 months): not significantly different
